According to patent US10604528B2, “Galunisertib crystalline form, preparation method thereof and use thereof” (Crystal Pharmaceutical (Suzhou) Co., Ltd., priority 2016, dated 2020):
≈ marks a conversion by molar mass, not a printed value. Entries after “also recorded” stand apart in the source; their conditions may differ. Like-named read-outs stand apart in the source and are kept apart here.

Tests used:
Format in all cases: physicochemical
[1] = Long-term and accelerated solid-state stability (XRPD)
Procedure: Solid samples of Form A and Form 1 were stored under different conditions of 25° C./60% RH, 40° C./75% RH. 60° C./75% RH and 80° C.

[2] = Hygroscopicity by dynamic vapor sorption (DVS); settings: for Hygroscopicity class / Weight gain at 80% RH: 80% RH; for Hygroscopicity class: Chinese Pharmacopoeia 2015 definition; for Weight gain at 80% RH / Weight gain at 95% RH: DVS
Procedure: Dynamic vapor sorption (DVS) was applied to test hygroscopicity of Form A and Form 1 disclosed in WO2007018818A1 with about 10 mg of samples.
Description and definition of hygroscopicity (Chinese Pharmacopoeia 2015 edition, 9103 General drug hygroscopic test guidelines, test at 25° C.±1° C., 80% RH).

[3] = Kinetic solubility in FaSSIF, FeSSIF and water (HPLC)
Procedure: Form A of the present disclosure and Form 1 of the prior art were suspended into FaSSIF (Fasted state simulated intestinal fluids, pH=6.5), FeSSIF (Fed state simulated intestinal fluids, pH=5.0), SGF (Simulated gastric fluids, pH=1.8) and water to get saturated solutions. After equilibrated for 1 h, 4 h and 24 h, concentrations of the saturated solutions were measured by HPLC.

[4] = Particle size distribution (laser particle size analyzer, wet process)
Procedure: The particle size distribution test in the present disclosure is acquired by the S3500 laser particle size analyzer of Microtrac. Microtrac S3500 is equipped with the SDC (Sample Delivery Controller). The test is carried out by wet process, and the dispersion medium is Isopar G. The parameters are as follow: […]

[5] = Mechanical stability (manual grinding, XRPD); settings: ground manually for 5 minutes in mortar
Procedure: Solid sample of Form A of the present disclosure was ground manually for 5 minutes in mortar. The XRPD pattern overlay of the solids before and after grinding is substantially as depicted in FIG. 9 (top: XRPD pattern before grinding, bottom: XRPD pattern after grinding).

| Solid form after storage ([1]; 25° C./60% RH, 12 months) | Solid form after storage ([1]; 40° C./75% RH, 12 months) | Solid form after storage ([1]; 60° C./75% RH, 2 weeks) | Weight gain at 80% RH [2] | Weight gain at 95% RH [2] | solubility ([3]; FaSSIF pH=6.5, 1 h) | solubility ([3]; FaSSIF pH=6.5, 4 h) | solubility ([3]; FaSSIF pH=6.5, 24 h) | solubility ([3]; FeSSIF pH=5.0, 1 h) | solubility ([3]; FeSSIF pH=5.0, 4 h) | solubility ([3]; FeSSIF pH=5.0, 24 h) | solubility ([3]; H2O, 1 h) | solubility ([3]; H2O, 4 h) | solubility ([3]; H2O, 24 h) | D10 ([4]; ultrasonication time 0 s) | D50 ([4]; ultrasonication time 0 s) | D90 ([4]; ultrasonication time 0 s) | MV (average particle size calculated by volume) ([4]; ultrasonication time 0 s) | SMILES | Solid form after storage ([1]; 80° C., 2 weeks) | Hygroscopicity class [2] | also measured |
| --- | --- | --- | --- | --- | --- | --- | --- | --- | --- | --- | --- | --- | --- | --- | --- | --- | --- | --- | --- | --- | --- |
| Form A | No form change; also recorded: Form A | Form A | 0.15% | 0.23% | 230 µg/mL (≈ 623 µM) | 270 µg/mL (≈ 731 µM) | 520 µg/mL (≈ 1410 µM) | 480 µg/mL (≈ 1300 µM) | 820 µg/mL (≈ 2220 µM) | 640 µg/mL (≈ 1730 µM) | 170 µg/mL (≈ 460 µM) | 250 µg/mL (≈ 677 µM) | 310 µg/mL (≈ 839 µM) | 50.28 μm | 170.3 μm | 356.4 μm | 190.8 μm | Cc1cccc(-c2nn3c(c2-c2ccnc4ccc(C(N)=O)cc24)CCC3)n1 [Form A, 2-(6-methyl-pyridin-2-yl)-3-[6-amido-quinolin-4-yl)-5,6-dihydro-4H-pyrrolo[1,2-b]pyrazole] | Form A | non-hygroscopic or almost non-hygroscopic | Time the form keeps stable ([1]; 25° C./60% RH and 40° C./75% RH): at least 12 months; Time the form keeps stable ([1]; 60° C./75% RH and 80° C.): at least 2 weeks; Solid Form after DVS test ([2]; XRPD after DVS test): does not change after DVS test; also recorded: Form A (no change); solubility relative to Form 1 ([3]; FaSSIF pH=6.5, 24 h): ten times higher than that of Form 1; D10 ([4]; ultrasonication time 30 s): 34.37 μm; D50 ([4]; ultrasonication time 30 s): 106.2 μm; D90 ([4]; ultrasonication time 30 s): 210.5 μm; MV (average particle size calculated by volume) ([4]; ultrasonication time 30 s): 116.1 μm; D10 ([4]; ultrasonication time 60 s): 29.37 μm; D50 ([4]; ultrasonication time 60 s): 92.81 μm; D90 ([4]; ultrasonication time 60 s): 192.2 μm; MV (average particle size calculated by volume) ([4]; ultrasonication time 60 s): 104.1 μm; D10 ([4]; ultrasonication time 90 s): 26.40 μm; D50 ([4]; ultrasonication time 90 s): 83.69 μm; D90 ([4]; ultrasonication time 90 s): 167.2 μm; MV (average particle size calculated by volume) ([4]; ultrasonication time 90 s): 91.94 μm; Crystalline form (XRPD pattern) after grinding [5]: doesn't change significantly; also recorded: No form change |
| Form 1 | Form 1 | Form 1 | 0.33% | 0.53% | 58 µg/mL (≈ 157 µM) | 51 µg/mL (≈ 138 µM) | 52 µg/mL (≈ 141 µM) | 120 µg/mL (≈ 325 µM) | 110 µg/mL (≈ 298 µM) | 120 µg/mL (≈ 325 µM) | 56 µg/mL (≈ 152 µM) | 55 µg/mL (≈ 149 µM) | 55 µg/mL (≈ 149 µM) | 33.41 μm | 56.97 μm | 95.11 μm | 62.25 μm | Cc1cccc(-c2nn3c(c2-c2ccnc4ccc(C(N)=O)cc24)CCC3)n1 [Form 1, 2-(6-methyl-pyridin-2-yl)-3-[6-amido-quinolin-4-yl)-5,6-dihydro-4H-pyrrolo[1,2-b]pyrazole, reference compound] | partially converts to Form A; also recorded: Form 1 + Form A | slightly hygroscopic | solubility ([3]; FaSSIF and water, pH 6.5, fassif, thermodynamic from solid, in both FaSSIF and H2O, all sampling points, read-out: solubility): < 60 µg/mL; D10 ([4]; ultrasonication time 30 s): 24.89 μm; D50 ([4]; ultrasonication time 30 s): 42.56 μm; D90 ([4]; ultrasonication time 30 s): 68.40 μm; MV (average particle size calculated by volume) ([4]; ultrasonication time 30 s): 45.75 μm; D10 ([4]; ultrasonication time 60 s): 22.40 μm; D50 ([4]; ultrasonication time 60 s): 37.88 μm; D90 ([4]; ultrasonication time 60 s): 59.87 μm; MV (average particle size calculated by volume) ([4]; ultrasonication time 60 s): 40.41 μm; D10 ([4]; ultrasonication time 90 s): 20.94 μm; D50 ([4]; ultrasonication time 90 s): 35.58 μm; D90 ([4]; ultrasonication time 90 s): 55.95 μm; MV (average particle size calculated by volume) ([4]; ultrasonication time 90 s): 37.83 μm |
